Columns and labels:
Meriones unguiculatus [1] = assay: Compound was evaluated for percentage clearance of Haemonchus contortus from jirds at the dose of 68 mg/kg; type: functional
Meriones unguiculatus [2] = assay: Compound was evaluated for percentage clearance of Haemonchus contortus from jirds at dose of 25 mg/kg; type: functional

Cc1cc(O)c(C(=O)Nc2ccc(Br)cc2)c(=O)o1
Parasite_Clearance (Meriones unguiculatus [1]): 76%

O=C(Nc1ccc(Br)cc1)C1=C(O)c2ccccc2C1=O
Parasite_Clearance (Meriones unguiculatus [1]): 100%

O=C(Nc1ccc(Br)cc1)c1c(O)c2ccccc2oc1=O
Parasite_Clearance (Meriones unguiculatus [1]): 89%

O=C(Nc1ccc(Br)cc1)C1=C(O)C2C3C=CC(O3)C2C1=O (stereo not given)
Parasite_Clearance (Meriones unguiculatus [1]): 92%

O=C(Nc1ccc(Br)cc1)c1c(O)c2cccnc2oc1=O
Parasite_Clearance (Meriones unguiculatus [1]): 100%

O=C(Nc1ccc(Br)cc1)c1c(O)nc2sc(C(F)(F)F)nn2c1=O
Parasite_Clearance (Meriones unguiculatus [1]): 82%

CN1C(=O)C(=C(O)Nc2ccc(Br)cc2)C(=O)N(C)C1=O
Parasite_Clearance (Meriones unguiculatus [2]): 81% | Parasite_Clearance (Meriones unguiculatus [1]): 100%

O=C(Nc1ccc(Br)cc1)C1=C(O)[C@@H]2[C@H](C1=O)[C@@H]1C=C[C@H]2C1
Parasite_Clearance (Meriones unguiculatus [1]): 98%

Cn1c(=O)c(C(=O)Nc2ccc(Br)cc2)c(O)c2ccccc21
Parasite_Clearance (Meriones unguiculatus [1]): 81%
